Measurements published in ChEMBL document CHEMBL1128787, “Design of a new selective cysteine protease inactivator and its mechanistic implications” (Bioorg Med Chem Lett, 1995).

Assays:
[1] = target: T1, Papain (Carica papaya, UniProt P00784); experiment: Kinetic parameter (Ki 1/min) was evaluated for the inactivation of papain
T1 sequence (P00784 whole entry): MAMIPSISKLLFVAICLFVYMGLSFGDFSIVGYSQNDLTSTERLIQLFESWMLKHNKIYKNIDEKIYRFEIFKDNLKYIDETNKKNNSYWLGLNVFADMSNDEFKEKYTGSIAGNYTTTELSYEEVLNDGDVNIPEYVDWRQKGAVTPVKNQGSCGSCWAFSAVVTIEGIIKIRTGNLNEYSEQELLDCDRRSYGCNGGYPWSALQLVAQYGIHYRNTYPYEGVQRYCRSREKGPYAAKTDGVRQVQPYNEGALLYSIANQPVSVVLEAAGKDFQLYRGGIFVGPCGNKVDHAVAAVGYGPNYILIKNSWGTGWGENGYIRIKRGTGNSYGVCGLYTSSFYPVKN

[2] = target: T2, Cathepsin B (Homo sapiens, UniProt P07858); experiment: Kinetic parameter (kinact 1/min) was evaluated for the inactivation of cathepsin B
[3] = target: T1, Papain; experiment: Kinetic parameter (Ki mM) was evaluated for the inactivation of papain
[4] = target: T2, Cathepsin B; experiment: Kinetic parameter (Ki mM) was evaluated for the inactivation of cathepsin B

Ki [1]: 0.208 min⁻¹
kinact [2]: 0.087 min⁻¹
Ki [3]: 574 µM
Ki [4]: 367 µM
SMILES: O=C(N[C@@H](Cc1ccccc1)[C@H]1CO1)OCc1ccccc1
